From patent US20250353864A1, “INDAZOLE CONTAINING MACROCYCLES AND THEIR USE” (BLOSSOMHILL THERAPEUTICS, INC., priority 2022, published 2025) come the findings set out here.

What all share (type): biochemical
For one experiment, the target named is EGFR Δ746-750 mutant (Homo sapiens (Human), UniProt P00533, DEL746-750). The experiment is described as follows: HotSpot radiometric kinase assay, EGFR Δ746-750 mutant. Conditions: 10 μM ATP. An outline of the steps:
(§1)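 10 μM ATP (33P-labelled, final); 120 min RT; P81 filter capture, 0.75% phosphoric acid washes. Cpd preincubated ~20 min with enzyme/substrate, 20 mM Hepes pH 7.5, 10 mM MgCl2, 1% DMSO. IC50 by curve fit.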

Another experiment deals with CLK3 (Homo sapiens (Human), UniProt P49761). The experiment is described as follows: Inhibition of CLK3 kinase activity evaluated at Nanosyn (ADP-Glo). Conditions: ADP-Glo luminescence. On the procedure: (§2) Inhibition of CLK, CLK2, CLK3 and CLK4 Kinase Activity Evaluated at Nanosyn
(§3) Kinase protein and substrate were pre-diluted in the HEPES assay buffer (100 mM HEPES, pH 7.5, 0.01% Triton X-100, 0.1% BSA, 5 mM MgCl2, […] DTT, 10 Sodium Orthovanadate, […] Beta-Glycerophosphate) dispensed into 384 well plate (5 μL per well). Control samples (0%-inhibition in the absence of inhibitor, DMSO only) and 100%-inhibition (in the absence of enzyme) were assembled in replicates of six and were used to calculate %-inhibition in the presence of compounds. Test compounds were added to the protein samples by acoustic dispensing (Labcyte Echo550). Concentration of DMSO was equalized to 1% in all samples. Reactions were initiated by addition of ATP by acoustic dispensing (Labcyte Echo550) and incubated according to assay specific incubation time. After incubation. 5 μL of Promega ADP-Glo reagent was added and incubated for 40 minutes. After 40 minutes, 10 uL of Promega kinase detection reagent was added. After 10 min of incubation with Kinase detection reagent, the luminescence was read on microplate reader (Biotek Synergy).
In general terms: ADP-Glo turns the ADP formed in a reaction into a luminescent signal.

In experiment [1] the target is EGFR Δ746-750/C797S mutant (Homo sapiens (Human), UniProt P00533, C797S/DEL746-750). As to the kind of experiment: HotSpot radiometric kinase assay, EGFR Δ746-750/C797S mutant. Conditions: 10 μM ATP. An outline of the steps: as §1
For a further experiment, the target named is EGFR WT (Homo sapiens (Human), UniProt P00533). As to the kind of experiment: HotSpot radiometric kinase assay (Reaction Biology), EGFR WT. Conditions: 10 μM ATP. An outline of the steps: as §1
For experiment [2], the target named is EGFR L858R/T790M/C797S mutant (Homo sapiens (Human), UniProt P00533, C797S/L858R/T790M). As to the kind of experiment: HotSpot radiometric kinase assay, EGFR L858R/T790M/C797S mutant. Conditions: 10 μM ATP. An outline of the steps:
as §1

A further experiment has as its target EGFR L858R/T790M mutant (Homo sapiens (Human), UniProt P00533, L858R/T790M). The experiment is described as follows: HotSpot radiometric kinase assay, EGFR L858R/T790M mutant. Conditions: 10 μM ATP. An outline of the steps:
as §1

The next experiment addresses EGFR (D770_N771insNPG) (Homo sapiens (Human), UniProt P00533, INS770NPG). As to the kind of experiment: HotSpot radiometric kinase assay, EGFR (D770_N771insNPG). Conditions: 10 μM ATP, read-out: EGFR (Δ770_N771insNPG) IC50. An outline of the steps:
as §1

The next experiment concerns the target CLK2 (Homo sapiens (Human), UniProt P49760). The experiment is described as follows: Inhibition of CLK2 kinase activity evaluated at Nanosyn (ADP-Glo). Conditions: ADP-Glo luminescence. On the procedure: as §2, §3
The target of the next experiment is EGFR L858R mutant (Homo sapiens (Human), UniProt P00533, L858R). The experiment is described as follows: HotSpot radiometric kinase assay, EGFR L858R mutant. Conditions: 10 μM ATP. An outline of the steps:
as §1

The target of the next experiment is CLK4 (Homo sapiens (Human), UniProt Q9HAZ1). As to the kind of experiment: Inhibition of CLK4 kinase activity evaluated at Nanosyn (ADP-Glo). Conditions: ADP-Glo luminescence. Here is the method:
as §2, §3

Another experiment has as its target CLK1 (Homo sapiens (Human), UniProt P49759). The experiment is described as follows: Inhibition of CLK1 kinase activity evaluated at Nanosyn (ADP-Glo). Conditions: ADP-Glo luminescence. Here is the method:
as §2, §3

Chain of CLK4 (Q9HAZ1 whole entry): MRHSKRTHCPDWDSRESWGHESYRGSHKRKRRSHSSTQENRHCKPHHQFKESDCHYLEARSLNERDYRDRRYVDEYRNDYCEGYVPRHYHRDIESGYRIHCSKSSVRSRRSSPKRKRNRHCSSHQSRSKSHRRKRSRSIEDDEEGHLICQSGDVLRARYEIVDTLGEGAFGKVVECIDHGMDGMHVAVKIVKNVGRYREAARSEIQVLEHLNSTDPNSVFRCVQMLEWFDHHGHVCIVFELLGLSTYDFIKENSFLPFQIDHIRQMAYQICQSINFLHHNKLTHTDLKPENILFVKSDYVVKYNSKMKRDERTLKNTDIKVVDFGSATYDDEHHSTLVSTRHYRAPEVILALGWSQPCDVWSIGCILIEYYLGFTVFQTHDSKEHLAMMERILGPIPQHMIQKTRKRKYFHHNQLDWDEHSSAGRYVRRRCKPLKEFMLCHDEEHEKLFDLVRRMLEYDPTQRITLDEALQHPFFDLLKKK
Chain of CLK1 (P49759 whole entry): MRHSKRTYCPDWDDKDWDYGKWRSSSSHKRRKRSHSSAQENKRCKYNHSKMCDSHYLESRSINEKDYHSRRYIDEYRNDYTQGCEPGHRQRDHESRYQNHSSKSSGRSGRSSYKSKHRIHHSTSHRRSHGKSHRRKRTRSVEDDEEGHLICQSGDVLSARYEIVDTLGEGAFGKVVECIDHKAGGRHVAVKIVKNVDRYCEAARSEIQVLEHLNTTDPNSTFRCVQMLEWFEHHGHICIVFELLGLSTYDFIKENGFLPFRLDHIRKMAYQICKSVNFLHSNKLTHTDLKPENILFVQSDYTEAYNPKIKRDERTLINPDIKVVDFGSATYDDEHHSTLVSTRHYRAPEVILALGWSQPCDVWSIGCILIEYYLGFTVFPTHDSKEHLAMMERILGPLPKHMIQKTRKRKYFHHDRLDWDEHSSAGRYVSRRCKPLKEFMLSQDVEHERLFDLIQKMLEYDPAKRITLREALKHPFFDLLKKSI
Chain of EGFR (D770_N771insNPG) (P00533 other isoform, or with tags, fused parts or gaps del 1-668/ins NPG behind 770 limits assumed): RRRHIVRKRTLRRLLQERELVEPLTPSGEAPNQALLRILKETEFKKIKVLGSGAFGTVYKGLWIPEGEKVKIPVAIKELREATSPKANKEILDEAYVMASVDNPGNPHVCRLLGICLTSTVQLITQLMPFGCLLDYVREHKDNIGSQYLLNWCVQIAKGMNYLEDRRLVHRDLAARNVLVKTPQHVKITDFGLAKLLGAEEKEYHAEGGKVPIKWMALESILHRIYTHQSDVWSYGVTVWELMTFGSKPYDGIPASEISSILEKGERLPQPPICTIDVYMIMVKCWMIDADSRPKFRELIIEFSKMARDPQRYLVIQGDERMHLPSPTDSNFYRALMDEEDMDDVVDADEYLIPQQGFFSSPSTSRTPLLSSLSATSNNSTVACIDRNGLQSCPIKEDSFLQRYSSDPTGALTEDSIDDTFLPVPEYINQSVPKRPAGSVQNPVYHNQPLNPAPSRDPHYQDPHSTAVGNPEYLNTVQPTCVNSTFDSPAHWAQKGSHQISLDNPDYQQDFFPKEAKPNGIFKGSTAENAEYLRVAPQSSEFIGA
Chain of EGFR Δ746-750 mutant (P00533 other isoform, or with tags, fused parts or gaps del 1-668/del 746-750 limits assumed): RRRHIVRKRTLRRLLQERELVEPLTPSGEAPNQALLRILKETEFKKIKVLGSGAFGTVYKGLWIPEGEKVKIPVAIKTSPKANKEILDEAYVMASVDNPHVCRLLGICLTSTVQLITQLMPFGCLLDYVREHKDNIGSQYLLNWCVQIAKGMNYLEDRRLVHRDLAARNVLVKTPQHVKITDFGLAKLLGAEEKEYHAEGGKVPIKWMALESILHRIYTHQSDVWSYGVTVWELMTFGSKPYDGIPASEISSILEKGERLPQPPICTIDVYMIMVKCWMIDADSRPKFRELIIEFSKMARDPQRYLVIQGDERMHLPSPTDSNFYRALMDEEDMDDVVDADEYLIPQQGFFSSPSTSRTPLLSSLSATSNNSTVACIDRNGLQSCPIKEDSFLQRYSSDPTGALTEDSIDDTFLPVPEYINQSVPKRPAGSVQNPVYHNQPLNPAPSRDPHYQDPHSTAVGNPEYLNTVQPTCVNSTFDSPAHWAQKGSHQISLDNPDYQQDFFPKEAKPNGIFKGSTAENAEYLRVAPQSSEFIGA
Chain of CLK3 (P49761 whole entry): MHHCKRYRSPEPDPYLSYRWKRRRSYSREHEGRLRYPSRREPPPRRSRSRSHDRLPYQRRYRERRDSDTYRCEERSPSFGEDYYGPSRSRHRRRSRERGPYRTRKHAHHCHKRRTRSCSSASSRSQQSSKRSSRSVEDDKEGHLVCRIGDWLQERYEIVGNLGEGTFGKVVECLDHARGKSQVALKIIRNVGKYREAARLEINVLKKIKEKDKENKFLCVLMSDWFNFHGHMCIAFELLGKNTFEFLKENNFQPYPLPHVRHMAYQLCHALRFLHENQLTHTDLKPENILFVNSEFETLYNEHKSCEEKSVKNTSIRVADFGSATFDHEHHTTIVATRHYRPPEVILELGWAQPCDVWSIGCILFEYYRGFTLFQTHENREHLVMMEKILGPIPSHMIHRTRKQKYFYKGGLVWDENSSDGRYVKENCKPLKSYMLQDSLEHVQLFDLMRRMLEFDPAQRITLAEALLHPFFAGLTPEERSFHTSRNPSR
Chain of EGFR L858R mutant (P00533 25-1210 L858R): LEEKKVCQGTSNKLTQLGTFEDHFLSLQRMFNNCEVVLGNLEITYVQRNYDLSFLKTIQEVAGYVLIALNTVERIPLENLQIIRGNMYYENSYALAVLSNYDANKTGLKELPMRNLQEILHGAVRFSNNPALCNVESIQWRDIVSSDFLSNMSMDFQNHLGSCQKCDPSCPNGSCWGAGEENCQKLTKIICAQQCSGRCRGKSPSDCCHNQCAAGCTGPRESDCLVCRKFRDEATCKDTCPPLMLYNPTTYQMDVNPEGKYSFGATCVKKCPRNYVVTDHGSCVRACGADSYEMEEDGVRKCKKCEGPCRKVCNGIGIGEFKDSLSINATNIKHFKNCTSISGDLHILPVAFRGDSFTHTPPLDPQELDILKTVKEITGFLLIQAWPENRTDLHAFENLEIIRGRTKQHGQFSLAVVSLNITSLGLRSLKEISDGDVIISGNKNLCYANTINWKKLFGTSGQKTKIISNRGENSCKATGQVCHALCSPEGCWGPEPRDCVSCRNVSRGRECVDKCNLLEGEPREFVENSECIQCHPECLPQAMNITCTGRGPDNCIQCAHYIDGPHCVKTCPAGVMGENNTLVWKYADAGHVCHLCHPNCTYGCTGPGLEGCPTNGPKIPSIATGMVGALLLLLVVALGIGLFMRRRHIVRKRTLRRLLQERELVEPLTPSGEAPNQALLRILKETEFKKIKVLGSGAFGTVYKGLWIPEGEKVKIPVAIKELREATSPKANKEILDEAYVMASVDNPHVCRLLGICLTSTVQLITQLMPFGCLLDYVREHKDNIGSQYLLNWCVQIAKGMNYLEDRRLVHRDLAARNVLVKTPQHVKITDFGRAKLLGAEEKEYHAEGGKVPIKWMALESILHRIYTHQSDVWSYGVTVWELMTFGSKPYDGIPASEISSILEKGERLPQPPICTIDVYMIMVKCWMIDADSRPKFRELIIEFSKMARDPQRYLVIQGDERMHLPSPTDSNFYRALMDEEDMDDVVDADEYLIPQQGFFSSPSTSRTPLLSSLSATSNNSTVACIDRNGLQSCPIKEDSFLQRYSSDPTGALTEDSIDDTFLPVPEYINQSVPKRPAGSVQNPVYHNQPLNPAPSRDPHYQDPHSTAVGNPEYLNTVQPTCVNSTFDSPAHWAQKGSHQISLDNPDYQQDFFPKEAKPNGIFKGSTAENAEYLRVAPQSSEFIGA
Chain of EGFR L858R/T790M/C797S mutant (P00533 25-1210 T790M/C797S/L858R): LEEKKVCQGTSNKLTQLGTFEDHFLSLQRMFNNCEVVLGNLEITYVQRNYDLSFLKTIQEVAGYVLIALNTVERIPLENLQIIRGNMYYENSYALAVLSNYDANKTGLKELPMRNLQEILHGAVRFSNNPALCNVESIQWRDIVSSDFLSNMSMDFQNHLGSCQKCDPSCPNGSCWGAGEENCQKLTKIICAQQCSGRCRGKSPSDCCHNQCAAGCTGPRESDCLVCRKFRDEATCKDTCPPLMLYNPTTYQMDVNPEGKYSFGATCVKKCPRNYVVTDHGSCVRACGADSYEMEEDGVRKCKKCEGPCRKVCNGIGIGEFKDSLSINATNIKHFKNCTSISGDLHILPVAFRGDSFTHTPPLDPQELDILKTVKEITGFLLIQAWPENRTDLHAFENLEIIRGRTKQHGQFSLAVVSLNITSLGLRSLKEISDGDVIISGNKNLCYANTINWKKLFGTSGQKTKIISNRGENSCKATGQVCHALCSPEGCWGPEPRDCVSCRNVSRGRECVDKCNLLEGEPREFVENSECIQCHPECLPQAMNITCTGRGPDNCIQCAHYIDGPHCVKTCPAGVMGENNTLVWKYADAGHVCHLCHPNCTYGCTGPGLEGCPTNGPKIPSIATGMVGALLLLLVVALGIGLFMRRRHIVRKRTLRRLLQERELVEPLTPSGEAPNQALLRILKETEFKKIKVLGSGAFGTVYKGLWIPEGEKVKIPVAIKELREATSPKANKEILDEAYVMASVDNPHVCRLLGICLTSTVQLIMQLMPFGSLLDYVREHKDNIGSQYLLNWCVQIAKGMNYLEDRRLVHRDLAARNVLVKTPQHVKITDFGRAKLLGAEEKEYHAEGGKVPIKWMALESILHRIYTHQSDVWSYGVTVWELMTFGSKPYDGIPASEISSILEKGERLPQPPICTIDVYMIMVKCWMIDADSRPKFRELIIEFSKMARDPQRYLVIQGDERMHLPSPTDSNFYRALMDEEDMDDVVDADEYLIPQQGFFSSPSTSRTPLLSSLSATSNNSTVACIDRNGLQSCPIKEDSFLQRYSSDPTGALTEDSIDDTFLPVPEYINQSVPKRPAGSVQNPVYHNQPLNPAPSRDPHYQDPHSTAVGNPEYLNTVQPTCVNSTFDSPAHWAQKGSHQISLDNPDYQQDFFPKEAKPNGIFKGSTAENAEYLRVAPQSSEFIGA

For the compound `C[C@H]1CN(C)Cc2c(c(OCC(F)(F)F)nn2C)/C=C/c2n[nH]c3ccc(cc23)-c2cnn(C)c2O1` [Example 162, (10S,17E)-8,10,12,14-tetramethyl-16-(2,2,2-trifluoroethoxy)-2,10,11,12,13,14-hexahydro-8H-3,5-ethenotripyrazolo[3,4-f:3′,4′-j:4″,3″-n][1,4]oxazacyclopentadecine], the IC50 (as a rule, the concentration needed to halve the response being measured) is 30.5 nM at EGFR Δ746-750 mutant; 784 nM at CLK3; 33.5 nM in experiment [1]; 238 nM at EGFR WT; 0.9 nM in [2]; 1.4 nM against EGFR L858R/T790M mutant. The half-maximal inhibitory concentration (IC50) was found to be 523 nM on EGFR (D770_N771insNPG); 0.07 nM at CLK2; 47.4 nM against EGFR L858R mutant; 0.25 nM on CLK4; 0.11 nM at CLK1.

Consider `CCOc1nn(CCO)c2c1/C=C/c1n[nH]c3ccc(cc13)-c1c(C)nn(C)c1O[C@@H](C)CN(C(C)C)C2` [Example 142, 2-[(10S,17E)-16-ethoxy-6,8,10-trimethyl-12-(propan-2-yl)-2,8,10,11,12,13-hexahydro-14H-3,5-ethenotripyrazolo[3,4-f:3′,4′-j:4″,3″- n][1,4]oxazacyclopentadecin-14-yl]ethan-1-ol], for which the IC50 against EGFR Δ746-750 mutant turned out to be 1.11 nM; at CLK3 it was 1000 nM; in experiment [1] it was 1.32 nM; at EGFR WT it was 2.14 nM; in experiment [2], 1.83 nM; at EGFR L858R/T790M mutant, 1.29 nM. Further, the IC50 at EGFR (D770_N771insNPG) came out at 16.7 nM; on CLK2, 13.9 nM; against EGFR L858R mutant it was 0.9 nM; on CLK4, 5.91 nM; on CLK1, 11.9 nM.

For `COCc1nn(CCO)c2c1/C=C/c1n[nH]c3ccc(cc13)-c1cnn(C)c1O[C@@H](C)CN(C)C2` [Example 261, 2-[(10S,17E)-16-(methoxymethyl)-8,10,12-trimethyl-2,8,10,11,12,13-hexahydro-14H-3,5-ethenotripyrazolo[3,4-f:3′,4′-j:4″,3″-n][1,4]oxazacyclopentadecin-14-yl]ethan-1-ol], the IC50 on EGFR Δ746-750 mutant stood at 23.5 nM; on CLK3, 209 nM; in experiment [1], 5.93 nM; against EGFR WT, 93.7 nM; in [2], 5.1 nM; at EGFR L858R/T790M mutant, 1.92 nM. In addition, the IC50 at EGFR (D770_N771insNPG) amounted to 230 nM; at CLK2, 0.33 nM; at EGFR L858R mutant it was 21.6 nM; on CLK4 it was 0.44 nM; at CLK1, 0.2 nM.

Consider `C[C@H]1CN(C)Cc2c(c(OC3CCN(S(C)(=O)=O)CC3)nn2C)/C=C/c2n[nH]c3ccc(cc23)-c2cnn(C)c2O1` [Example 143, (10S,17E)-16-{[1-(methanesulfonyl)piperidin-4-yl]oxy}-8,10,12,14-tetramethyl-2,10,11, 12,13,14-hexahydro-8H-3,5-ethenotripyrazolo[3,4-f 3′,4′-j:4″,3″-n][1,4]oxazacyclopentadecine], for which the half-inhibitory concentration (IC50) at EGFR Δ746-750 mutant was 39.4 nM; on CLK3 it was 12.1 nM; in [1], 41.3 nM; at EGFR WT, 320 nM; in [2], 4.63 nM; against EGFR L858R/T790M mutant it was 1.58 nM. Moreover, the concentration for half-maximal inhibition (IC50) at EGFR (D770_N771insNPG) came to 1630 nM; at CLK2, 0.02 nM; at EGFR L858R mutant it was 39.6 nM; at CLK4, 0.61 nM; on CLK1, 0.19 nM.

With `CC(C)Oc1nn(CCO)c2c1/C=C/c1n[nH]c3cc(F)c(cc13)-c1cnn(C)c1O[C@H](C)CN(C(C)C)C2` [Example 195, 2-{(10R,17E)-19-fluoro-8,10-dimethyl-12-(propan-2-yl)-16-[(propan-2-yl)oxy]-2,8,10,11,12,13-hexahydro-14H-3,5-ethenotripyrazolo[3,4-f:3′,4′-j:4″,3″- n][1,4]oxazacyclopentadecin-14-yl}ethan-1-ol], the half-maximal inhibitory concentration (IC50) was determined as 18.6 nM against EGFR Δ746-750 mutant; 435 nM on CLK3; 8.68 nM in [1]; 99.7 nM against EGFR WT; 3.67 nM in experiment [2]; 6.18 nM against EGFR L858R/T790M mutant. Further, the IC50 on EGFR (D770_N771insNPG) was 156 nM; at CLK2, 53.5 nM; at EGFR L858R mutant, 39.9 nM; on CLK4, 22.3 nM; at CLK1, 36.6 nM.

As to `CCOc1nn(CCO)c2c1/C=C/c1n[nH]c3ccc(cc13)-c1cnn(CC)c1O[C@@H](C)CN(C)C2` [Example 168, 2-[(10S,17E)-16-ethoxy-8-ethyl-10,12-dimethyl-2,8,10,11,12,13-hexahydro-14H-3,5-ethenotripyrazolo[3,4-f:3′,4′-j:4″,3″-n][1,4]oxazacyclopentadecin-14-yl]ethan-1-ol], the IC50 was determined as 5.96 nM on EGFR Δ746-750 mutant; 238 nM on CLK3; 1.38 nM in [1]; 16.6 nM against EGFR WT; 2.72 nM in experiment [2]; 0.72 nM against EGFR L858R/T790M mutant. Also, the concentration for half-maximal inhibition (IC50) on EGFR (D770_N771insNPG) turned out to be 13.9 nM; on CLK2, 0.33 nM; on EGFR L858R mutant, 1.88 nM; at CLK4 it was 0.77 nM; on CLK1, 0.39 nM.

For the compound `CC(C)Oc1nn(CCO)c2c1/C=C/c1n[nH]c3ccc(cc13)-c1cnn(C3CC3)c1O[C@@H](C)CN(C)C2` [Example 246, 2-{(10S,17E)-8-cyclopropyl-10,12-dimethyl-16-[(propan-2-yl)oxy]-2,8,10,11,12,13-hexahydro-14H-3,5-ethenotripyrazolo[3,4-f:3′,4′-j:4″,3″-n][1,4]oxazacyclopentadecin-14-yl}ethan-1-ol], the IC50 at EGFR Δ746-750 mutant came out at 8.71 nM; on CLK3, 386 nM; in experiment [1], 3.18 nM; at EGFR WT, 23.3 nM; in [2] it was 4.42 nM; against EGFR L858R/T790M mutant it was 1.71 nM. For the same compound, the IC50 at EGFR (D770_N771insNPG) is 39.5 nM; on CLK2 it was 1.36 nM; on EGFR L858R mutant it was 5.14 nM; on CLK4, 1.33 nM; on CLK1 it was 0.75 nM.

As for `Cc1nn(C)c2c1/C=C/c1n[nH]c3ccc(cc13)-c1cnn(C)c1O[C@H]1CCCN(C2)C1` [Example 176, (10S,19E)-8,16,18-trimethyl-2,8,10,11,12,13,15,16-octahydro-3,5-etheno-10,14-methanotripyrazolo[3,4-h:3′,4′-l:4″,3″- p][1,6]oxazacycloheptadecine], the IC50 came to 24.9 nM at EGFR Δ746-750 mutant; 1000 nM at CLK3; 35.2 nM in experiment [1]; 152 nM against EGFR WT; 13.1 nM in experiment [2]; 6.94 nM at EGFR L858R/T790M mutant. Moreover, the IC50 at EGFR (D770_N771insNPG) amounted to 83.4 nM; at CLK2 it was 11.8 nM; against EGFR L858R mutant, 55.5 nM; at CLK4, 1.44 nM; at CLK1, 1.54 nM.

Turning to `C[C@H]1CN(C)Cc2c(c(OCC(F)(F)F)nn2CCO)/C=C/c2n[nH]c3cc(F)c(cc23)-c2cnn(C)c2O1` [Example 211, 2-[(10S,17E)-19-fluoro-8,10,12-trimethyl-16-(2,2,2-trifluoroethoxy)-2,8,10,11,12,13-hexahydro-14H-3,5-ethenotripyrazolo[3,4-f:3′,4′-j:4″,3″- n][1,4]oxazacyclopentadecin-14-yl]ethan-1-ol], the IC50 is > 1000 nM on EGFR Δ746-750 mutant; 1 nM at CLK3; 2870 nM in experiment [1]; > 1000 nM at EGFR WT; > 1000 nM in [2]; > 1000 nM against EGFR L858R/T790M mutant. Also, the half-inhibitory concentration (IC50) was > 1000 nM on EGFR (D770_N771insNPG); 114 nM at CLK2; 400 nM at EGFR L858R mutant; 397 nM at CLK4; 270 nM on CLK1.
